Source: patent US7189680B2, “5-halo-6-aryl[1,2,4]triazolo[1,5-a]pyrimidin-7-amines” (Bayer Cropscience AG, priority 2001, dated 2007)

Test system: not listed separately
Assay: logP determination by HPLC (EEC directive 79/831 Annex V. A8)
Assay type: physicochemical
Details: HPLC gradient method, acetonitrile/0.1% aqueous phosphoric acid; Table 1
Experimental: *) The logP values were determined in accordance with EEC directive 79/831 Annex V. A8 by HPLC (gradient method, acetonitrile/0.1% aqueous phosphoric acid)

Row | logP* | Compound
1 | 2.03 | N#CCCNNc1c(-c2c(F)cc(F)cc2F)c(Cl)nc2ncnn12 [Example 23]
2 | 2.33 | CCONc1c(-c2c(F)cc(F)cc2F)c(Cl)nc2ncnn12 [Example 40]
3 | 3.37 | Fc1c(F)c(F)c(-c2c(Cl)nc3ncnn3c2NOCc2ccccc2)c(F)c1F [Example 112]
4 | 2.43 | Fc1cc(F)c(-c2c(Cl)nc3ncnn3c2NOCOc2ccc(Cl)nc2)c(F)c1 [Example 15]
5 | 3.3 | Fc1cccc(F)c1-c1c(Cl)nc2ncnn2c1NOCc1cccc(C(F)(F)F)c1 [Example 108]
6 | 3.31 | Fc1ccccc1-c1c(Cl)nc2ncnn2c1NOCc1ccc(C(F)(F)F)cc1 [Example 58]
7 | 3.06 | Fc1ccccc1-c1c(Cl)nc2ncnn2c1NOCc1ccccc1Cl [Example 59]
8 | 3.15 | Fc1ccccc1-c1c(Cl)nc2ncnn2c1NOCc1cccc(Cl)c1 [Example 60]
9 | 2.86 | CCC(C)ONc1c(-c2c(F)cc(F)cc2F)c(Cl)nc2ncnn12 (stereo not shown) [Example 41]
10 | 3.64 | Fc1c(F)c(F)c(-c2c(Cl)nc3ncnn3c2NOCc2cccc(Cl)c2)c(F)c1F [Example 117]
11 | 3.58 | Fc1c(F)c(F)c(-c2c(Cl)nc3ncnn3c2NOCc2ccccc2Cl)c(F)c1F [Example 116]
12 | 3.78 | CON(CC(C)C)c1c(-c2c(F)cc(F)cc2F)c(Cl)nc2ncnn12 [Example 152]
13 | 2.44 | Fc1cc(F)c(-c2c(Cl)nc3ncnn3c2NNCC2CCCO2)c(F)c1 (stereo not shown) [Example 52]
14 | 3.01 | CCCCONc1c(-c2c(F)cc(F)cc2F)c(Cl)nc2ncnn12 [Example 85]
15 | 3.22 | Fc1cc(F)c(-c2c(Cl)nc3ncnn3c2NOCc2ccccc2Cl)c(F)c1 [Example 81]
16 | 3.21 | Fc1cc(F)c(-c2c(Cl)nc3ncnn3c2NOCc2nc(-c3ccccc3)cs2)c(F)c1 [Example 9]
17 | 2.47 | Fc1cc(F)c(-c2c(Cl)nc3ncnn3c2NNCC(F)(F)F)c(F)c1 [Example 19]
18 | 3.63 | Fc1cccc(F)c1-c1c(Cl)nc2ncnn2c1NOCc1cc(Cl)cc(Cl)c1 [Example 104]
19 | 3.16 | Fc1ccccc1-c1c(Cl)nc2ncnn2c1NOCc1ccc(Cl)cc1 [Example 61]
20 | 3.6 | Fc1ccccc1-c1c(Cl)nc2ncnn2c1NOCc1ccc(Cl)cc1Cl [Example 97]
21 | 3.69 | Fc1ccccc1-c1c(Cl)nc2ncnn2c1NOCc1cc(Cl)cc(Cl)c1 [Example 96]
22 | 2.63 | CON(C)c1c(-c2c(F)cc(F)cc2F)c(Cl)nc2ncnn12 [Example 16]
23 | 2.22 | C#CCN(N)c1c(-c2c(F)cc(F)cc2F)c(Cl)nc2ncnn12 [Example 142]
24 | 4.02 | Fc1c(F)c(F)c(-c2c(Cl)nc3ncnn3c2NOCc2ccc(Cl)cc2Cl)c(F)c1F [Example 114]
25 | 3.28 | Fc1cc(F)c(-c2c(Cl)nc3ncnn3c2NNC2CCCCC2)c(F)c1 [Example 35]
26 | 3.02 | CC(NNc1c(-c2c(F)cc(F)cc2F)c(Cl)nc2ncnn12)C1CC1 (stereo not shown) [Example 25]
27 | 2.78 | CC(C)CONc1c(-c2c(F)cccc2F)c(Cl)nc2ncnn12 [Example 8]
28 | 3.34 | Fc1ccccc1-c1c(Cl)nc2ncnn2c1NOCc1cccc(C(F)(F)F)c1 [Example 99]
29 | 3.25 | CC(C)CCNNc1c(-c2c(F)cc(F)cc2F)c(Cl)nc2ncnn12 [Example 78]

The remaining lines, values behind:

Row | Compound | logP*
30 | Fc1cccc(F)c1-c1c(Cl)nc2ncnn2c1NOC1CCCCO1 (stereo not shown) [Example 51] | 2.43
31 | NN(c1c(-c2c(F)cc(F)cc2F)c(Cl)nc2ncnn12)C1CCCCC1 [Example 125] | 3.33
32 | CCC(C)NNc1c(-c2c(Cl)cccc2Cl)c(Cl)nc2ncnn12 (stereo not shown) [Example 154] | 3.14
33 | CC(C)CN(N)c1c(-c2c(F)cccc2Cl)c(Cl)nc2ncnn12 [Example 138] | 2.94
34 | CCC(C)NNc1c(-c2cccc3c2OC(F)(F)O3)c(Cl)nc2ncnn12 (stereo not shown) [Example 151] | 3.21
35 | CON(C)c1c(-c2c(F)c(F)c(F)c(F)c2F)c(Cl)nc2ncnn12 [Example 77] | 3.06
36 | CC(C)CN(N)c1c(-c2cccc(C(F)(F)F)c2Cl)c(Cl)nc2ncnn12 [Example 163] | 3.45
37 | CON(C)c1c(-c2c(F)cccc2F)c(Cl)nc2ncnn12 [Example 28] | 2.43
38 | CCC(C)NNc1c(-c2cc(C(F)(F)F)ccc2Cl)c(Cl)nc2ncnn12 (stereo not shown) [Example 149] | 3.47
39 | NN(CC1CC1)c1c(-c2c(Cl)cccc2Cl)c(Cl)nc2ncnn12 [Example 164] | 2.8
40 | Fc1c(F)c(F)c(-c2c(Cl)nc3ncnn3c2NOC2CCCCO2)c(F)c1F (stereo not shown) [Example 76] | 3.04
41 | CC1(NNc2c(-c3c(F)cc(F)cc3F)c(Cl)nc3ncnn23)CCCCC1 [Example 27] | 3.68
42 | NN(CC1CC1(Cl)Cl)c1c(-c2c(F)cccc2Cl)c(Cl)nc2ncnn12 (stereo not shown) [Example 171] | 3.11
43 | CC(C)CN(N)c1c(-c2c(Cl)cc(C(F)(F)F)cc2Cl)c(Cl)nc2ncnn12 [Example 136] | 3.85
44 | CC(C)=NN(CC(C)C)c1c(-c2c(F)cc(F)cc2F)c(Cl)nc2ncnn12 [Example 158] | 3.63
45 | CCCCN(N)c1c(-c2c(F)cc(F)cc2F)c(Cl)nc2ncnn12 [Example 132] | 2.96
46 | NN(CC1CCCO1)c1c(-c2c(F)cc(F)cc2F)c(Cl)nc2ncnn12 (stereo not shown) [Example 127] | 2.55
47 | CCNNc1c(-c2ccccc2F)c(Cl)nc2ncnn12 [Example 89] | 2.06
48 | CCC(C)N(N)c1c(-c2cc(C(F)(F)F)ccc2Cl)c(Cl)nc2ncnn12 (stereo not shown) [Example 146] | 3.99
49 | NN(c1c(-c2c(Cl)cccc2Cl)c(Cl)nc2ncnn12)C1CCCC1 [Example 161] | 3.37
50 | Fc1c(F)c(F)c(-c2c(Cl)nc3ncnn3c2NOCc2ccc(C(F)(F)F)cc2)c(F)c1F [Example 115] | 3.77
51 | CCCCONc1c(-c2c(F)c(F)c(F)c(F)c2F)c(Cl)nc2ncnn12 [Example 119] | 3.49

Row | Compound | logP*
52 | CCC(C)N(N)c1c(-c2c(F)cc(F)cc2F)c(Cl)nc2ncnn12 (stereo not shown) [Example 139] | 2.93
53 | CC(C)CN(N)c1c(-c2cc(C(F)(F)F)ccc2Cl)c(Cl)nc2ncnn12 [Example 140] | 3.51
54 | NN(c1c(-c2c(F)cc(F)cc2F)c(Cl)nc2ncnn12)C1CCCCCC1 [Example 141] | 3.66
55 | NN(CC1CC1)c1c(-c2c(F)cc(F)cc2F)c(Cl)nc2ncnn12 [Example 159] | 2.66
56 | CC(C)CNNc1c(-c2c(Cl)cccc2Cl)c(Cl)nc2ncnn12 [Example 156] | 3.18
57 | CCCCNNc1c(-c2ccccc2F)c(Cl)nc2ncnn12 [Example 90] | 2.77
58 | CONc1c(-c2c(F)c(F)c(F)c(F)c2F)c(Cl)nc2ncnn12 [Example 121] | 2.53
59 | NN(CC1CC1(Cl)Cl)c1c(-c2c(F)cc(F)cc2F)c(Cl)nc2ncnn12 (stereo not shown) [Example 166] | 3.11
60 | CCC(C)ONc1c(-c2c(F)cccc2F)c(Cl)nc2ncnn12 (stereo not shown) [Example 48] | 2.67
61 | NN(CC1CC1)c1c(-c2c(F)cccc2Cl)c(Cl)nc2ncnn12 [Example 162] | 2.63
62 | CC(C)ONc1c(-c2c(F)c(F)c(F)c(F)c2F)c(Cl)nc2ncnn12 [Example 122] | 3.04
63 | CC(C)CONc1c(-c2ccccc2F)c(Cl)nc2ncnn12 [Example 56] | 2.79
64 | CC(C)(C)ONc1c(-c2c(F)c(F)c(F)c(F)c2F)c(Cl)nc2ncnn12 [Example 75] | 3.24
65 | CC(C)CN(N)c1c(-c2ccc(F)cc2Cl)c(Cl)nc2ncnn12 [Example 172] | 3.15
66 | CON(C)c1c(-c2ccccc2F)c(Cl)nc2ncnn12 [Example 68] | 2.33
67 | CC(C)N(N)c1c(-c2ccc(C(F)(F)F)cc2F)c(Cl)nc2ncnn12 [Example 134] | 3.08
68 | Fc1cc(F)c(-c2c(Cl)nc3ncnn3c2NNCCN2CCOCC2)c(F)c1 [Example 54] | 1.14
69 | CC(C)CONc1c(-c2c(F)c(F)c(F)c(F)c2F)c(Cl)nc2ncnn12 [Example 69] | 3.42
70 | CCC(C)N(N)c1c(-c2cccc3c2OC(F)(F)O3)c(Cl)nc2ncnn12 (stereo not shown) [Example 150] | 3.27
71 | NN(CC1CCC1)c1c(-c2c(F)cccc2Cl)c(Cl)nc2ncnn12 [Example 173] | 3.07
72 | CCC(C)NNc1c(-c2cc(C(F)(F)F)ccc2Cl)c(Cl)nc2ncnn12 (stereo not shown) [Example 147] | 3.95
73 | CC(C)ON(C)c1c(-c2c(F)cccc2F)c(Cl)nc2ncnn12 [Example 34] | 3.01

Same assay, conditions: HPLC; preparation examples; read-out: HPLC: logP

Row | Compound | chromatographic logP
74 | C[C@H](N(SC(F)(Cl)Cl)c1c(-c2c(F)cc(F)cc2F)c(Cl)nc2ncnn12)C(F)(F)F [Example 3, 5-chloro-7-{{[dichloro(fluoro)methyl]sulphanyl}[(1S)-2,2,2-trifluoro-1-methylethyl]amino}-6-(2,4,6-trifluorophenyl)[1,2,4]triazolo[1,5-a]pyrimidine] | 4.74

Test system: Alternaria solani
Assay: Alternaria test (tomato)/protective
Assay type: in vivo
Details: protective, 750 g/ha, evaluation 7 days after inoculation
Experimental: To produce an appropriate preparation of active compound, 1 part by weight of active compound is mixed with the stated amounts of solvent and emulsifier, and the concentrate is diluted with water to the desired concentration.
To test for protective activity, young tomato plants are sprayed with the active compound preparation at the application rate indicated. One day after treatment, the plants are inoculated with a spore suspension of Alternaria solani and then stand at 100% relative humidity and 20° C. for 24 h. The plants subsequently stand at 96% relative humidity and a temperature of 20° C.
Evaluation is made 7 days after inoculation. 0% denotes an efficacy corresponding to that of the control while an efficacy of 100% means that no infestation is observed.

Row | Compound | Efficacy in % [%]
75 | NN(CC1CCCCC1)c1c(-c2c(F)cc(F)cc2F)c(Cl)nc2ncnn12 [drawing 50] | 94
76 | CCN(N)c1c(-c2c(F)cc(F)cc2F)c(Cl)nc2ncnn12 [drawing 48] | 89
77 | C=CCNNc1c(-c2c(F)cc(F)cc2F)c(Cl)nc2ncnn12 [drawing 49] | 94
78 | CCCN(N)c1c(-c2c(F)cc(F)cc2F)c(Cl)nc2ncnn12 [drawing 47] | 94
79 | CC(C)(C)NNc1c(-c2c(F)cc(F)cc2F)c(Cl)nc2ncnn12 [drawing 51] | 94
